Literature values as cited in US7442558B2, “Phthalamide-lanthanide complexes for use as luminescent markers” (The Regents of the University of California, priority 1999, dated 2008).
Where “and” joins values, the source holds several entries; their conditions need not be identical. Equal entries are not always repeated. Structures can show the parent of a compound that is named as a salt.

Conditions: in 0.05 M H2SO4; reference standard; cited from earlier work

Compound: C=C[C@H]1C[N@@]2CC[C@H]1C[C@H]2[C@H](O)c1ccnc2ccc(OC)cc12 [quinine sulfate]
- absolute quantum yield: 0.54 and 0.5460
